{"source": "patent US9011853B2", "about": "“B7-H4 fusion proteins and methods of use thereof” (Amplimmune, Inc., priority 2009, dated 2015)", "tested_on": "serum levels of 58 analytes", "test": "Serum biomarker analysis, quantitative immunoassay multi-analyte profiling (Rules-Based Medicine RodentMAP v2.9), AA#80", "assay_type": "in vivo, mouse", "details": "serum, listed as Human LgG1 Control", "method": "In AA#80, serum samples were collected on Day 27, Day 34, Day 41 and Day 55 via the submandibular vein. Approximately 200 μL of blood per mouse was collected in Microtainer® serum separator tubes. Serum was removed following centrifugation and stored at <−65° C. until analysis.\nSelected serum samples were sent to Rules-Based Medicine (Austin, Tex.) for quantitative immunoassay multi-analyte profiling of serum samples, with the goal of identifying biomarkers that could be used to monitor disease progression and response to B7-H4-Ig treatment. Day 27, Day 34, and Day 41 sera from the three representative mice in the B7-H4-Ig group (tag #3332, 3334, and 3338) and three representative mice in the Synagis® group (tag #3324, 3329, and 3330) were analyzed for levels of 58 analytes using the RodentMAP v2.9 Testing Service.\nData from the Rules-Based Medicine analysis was analyzed using Microsoft Excel and GraphPad Prism software. T-tests were performed to compare the levels of each analyte in the B7-H4-Ig versus Synagis® treated samples. No correction was made for multiple comparisons. Additionally, correlation coefficients were calculated for each analyte versus disease score.", "note": "“And” between values parts separate entries of the source, which are not always exact repeats. Equal entries are not always repeated."}
{"substance": "Synagis®: humanized monoclonal IgG antibody against the F protein of Respiratory Syncytial Virus; used as a human IgG1 isotype control [reference compound]", "values": [{"measurement": "MDC (Macrophage-Derived Chemokine)", "setting": "Day 41, LDD 21.85", "value": "1410 pg/mL and 1430 pg/mL and 1150 pg/mL"}, {"measurement": "MCP-3 (Monocyte Chemoattractant Protein-3)", "setting": "Day 41, LDD 31.36", "value": "235 pg/mL and 236 pg/mL and 242 pg/mL"}, {"measurement": "VEGF (Vescular Endotheial Cell Growth Factor)", "setting": "Day 41, LDD 38.2", "value": "150 pg/mL and 171 pg/mL and 212 pg/mL"}, {"measurement": "IP-10 (Inducible Protein-10)", "setting": "Day 41, LDD 40.28", "value": "54.7 pg/mL and 68.1 pg/mL and 66.8 pg/mL"}, {"measurement": "LIF (Leukemia Infabitory Factor)", "setting": "Day 41, LDD 43.6", "value": "1650 pg/mL and 1580 pg/mL and 1470 pg/mL"}, {"measurement": "MCP-5 (Monocyte Chemoattractant Protein-5)", "setting": "Day 41, LDD 46.38", "value": "45.6 pg/mL and 47.4 pg/mL and 52.8 pg/mL"}, {"measurement": "SCF (Stem Cell Factor)", "setting": "Day 41, LDD 75.17", "value": "214 pg/mL and 249 pg/mL and 201 pg/mL"}, {"measurement": "MIP-1beta (Macrophage Inflammatory Protein-1beta)", "setting": "Day 41, LDD 77.65", "value": "144 pg/mL and 115 pg/mL and 152 pg/mL"}, {"measurement": "Lymphotactin", "setting": "Day 41, LDD 85.48", "value": "178 pg/mL and 183 pg/mL and 194 pg/mL"}, {"measurement": "VWF (Von Willebrand Factor)", "setting": "Day 41, LDD 98.6", "value": "131 ng/mL and 103 ng/mL and 111 ng/mL"}, {"measurement": "M-CSF (Macrophage-Colony Stimulating Factor)", "setting": "Day 27, LDD 0.01795, individual mice", "value": "6.19 ng/mL and 6.6 ng/mL and 6.59 ng/mL"}, {"measurement": "MIP-1gamma (Macrophage Inflammatory Protein-1gamma)", "setting": "Day 27, LDD 0.0736, individual mice", "value": "36.9 ng/mL and 37.1 ng/mL and 37.9 ng/mL"}, {"measurement": "OSM (Oncostatin M)", "setting": "Day 27, LDD 0.13, individual mice", "value": "<low> (2×) and 0.0103 ng/ml"}, {"measurement": "TNF-alpha (Tumor Necrosis Factor-alpha)", "setting": "Day 27, LDD 0.137, individual mice", "value": "0.0965 ng/ml and <low> (2×)"}, {"measurement": "KC/GROalpha (Melanoma Growth Stimulatory Activity Protein)", "setting": "Day 27, LDD 0.1739, individual mice", "value": "0.0804 ng/mL and 0.0795 ng/mL and 0.0633 ng/mL"}, {"measurement": "TEMP-1 (Tissue Inhibitor of Metalicproteinase Type-1)", "setting": "Day 27, LDD 0.18, individual mice", "value": "1.38 ng/mL and 1.13 ng/mL and 1.23 ng/mL"}, {"measurement": "IL-5 (Interleukin-5)", "setting": "Day 27, LDD 0.194, individual mice", "value": "0.438 ng/mL and 0.403 ng/mL and 0.264 ng/mL"}, {"measurement": "MIP-1alpha (Macrophage Inflammatory Protein-1alpha)", "setting": "Day 27, LDD 0.2255, individual mice", "value": "3.03 ng/ml (2×) and 3.32 ng/ml"}, {"measurement": "IL-7 (Interleukin-7)", "setting": "Day 27, LDD 0.309, individual mice", "value": "0.0593 ng/ml and <low> (2×)"}, {"measurement": "MIP-3beta (Macrophage Inflammatory Protein-3beta)", "setting": "Day 27, LDD 0.465, individual mice", "value": "2.89 ng/mL and 3.05 ng/mL and 2.6 ng/mL"}, {"measurement": "RANTCS (Regulation Upon Activation Normal T-Cell Expressed and Secreted)", "setting": "Day 27, LDD 0.5, individual mice", "value": "0.0826 pg/ml and <low> (2×)"}, {"measurement": "Tissue Factor", "setting": "Day 27, LDD 0.5175, individual mice", "value": "9.17 ng/ml (2×) and 10 ng/ml"}, {"measurement": "MPO (Myeloperoxidase)", "setting": "Day 27, LDD 0.95, individual mice", "value": "216 ng/mL and 191 ng/mL and 265 ng/mL"}, {"measurement": "SGOT (Serum Glutamic-Oxaloacetic Transaminase)", "setting": "Day 27, LDD 1.86, individual mice", "value": "84.6 µg/mL and 79.7 µg/mL and 75.4 µg/mL"}, {"measurement": "TPO (Thromboproletin)", "setting": "Day 27, LDD 2.66, individual mice", "value": "38.9 ng/ml (2×) and 34.2 ng/ml"}, {"measurement": "SAP (Setrum Amtyloid P)", "setting": "Day 27, LDD 5.4, individual mice", "value": "40.5 µg/mL and 34.2 µg/mL and 42.9 µg/mL"}, {"measurement": "MIP-2 (Macrophage Inflammatory Protein-2)", "setting": "Day 27, LDD 7.174, individual mice", "value": "16.1 pg/mL and 22.2 pg/mL and 23.4 pg/mL"}, {"measurement": "MMP-9 (Matrix Metalloproteinase-9)", "setting": "Day 27, LDD 10, individual mice", "value": "166 ng/mL and 177 ng/mL and 431 ng/mL"}, {"measurement": "IL-6 (Interleukin-6)", "setting": "Day 27, LDD 13.852, individual mice", "value": "6.27 pg/ml (2×) and <low>"}, {"measurement": "MCP-1 (Monocyte Chemoattractant Protein-1)", "setting": "Day 27, LDD 16.924, individual mice", "value": "74.4 pg/mL and 64.7 pg/mL and 70.5 pg/mL"}, {"measurement": "VCAM-1 (Vescular Cell Adhesion Molecule-1)", "setting": "Day 27, LDD 19, individual mice", "value": "2260 ng/mL and 2080 ng/mL and 3160 ng/mL"}, {"measurement": "MDC (Macrophage-Derived Chemokine)", "setting": "Day 27, LDD 21.85, individual mice", "value": "1250 pg/mL and 1310 pg/mL and 1070 pg/mL"}, {"measurement": "Myoglobin", "setting": "Day 27, LDD 24, individual mice", "value": "8.96 ng/mL and 11.4 ng/mL and 23.8 ng/mL"}, {"measurement": "MCP-3 (Monocyte Chemoattractant Protein-3)", "setting": "Day 27, LDD 31.36, individual mice", "value": "168 pg/mL and 149 pg/mL and 138 pg/mL"}, {"measurement": "VEGF (Vescular Endotheial Cell Growth Factor)", "setting": "Day 27, LDD 38.2, individual mice", "value": "144 pg/mL and 136 pg/mL and 139 pg/mL"}, {"measurement": "IP-10 (Inducible Protein-10)", "setting": "Day 27, LDD 40.28, individual mice", "value": "45.3 pg/mL and 52 pg/mL and 55.5 pg/mL"}, {"measurement": "LIF (Leukemia Infabitory Factor)", "setting": "Day 27, LDD 43.6, individual mice", "value": "1650 pg/mL and 1390 pg/mL and 1470 pg/mL"}, {"measurement": "MCP-5 (Monocyte Chemoattractant Protein-5)", "setting": "Day 27, LDD 46.38, individual mice", "value": "35.7 pg/mL and 37.1 pg/mL and 35.5 pg/mL"}, {"measurement": "SCF (Stem Cell Factor)", "setting": "Day 27, LDD 75.17, individual mice", "value": "226 pg/mL and 207 pg/mL and 220 pg/mL"}, {"measurement": "MIP-1beta (Macrophage Inflammatory Protein-1beta)", "setting": "Day 27, LDD 77.65, individual mice", "value": "173 pg/ml (2×) and 150 pg/ml"}, {"measurement": "Lymphotactin", "setting": "Day 27, LDD 85.48, individual mice", "value": "198 pg/mL and 178 pg/mL and 189 pg/mL"}, {"measurement": "VWF (Von Willebrand Factor)", "setting": "Day 27, LDD 98.6, individual mice", "value": "125 ng/mL and 131 ng/mL and 155 ng/mL"}]}
